Measured values published in US11291693B2, “Bacteria engineered to treat metabolic diseases” (Synlogic Operating Company, Inc., priority 2015, dated 2022).

What was measured:
[1] = system: PnsrR-GFP reporter construct; assay: Nitric oxide-inducible GFP reporter assay, fluorescence plate reader; type: cell-based, E. coli Nissle; details: NO donor DETA-NO, two-fold decreased across a range of concentrations; relative florescence units; FIG. 28
[2] = system: dipeptidyl peptidase IV (DPP-IV); details: cited from earlier work; for resistance to DPPIV mediated degradation / cleavage: short description of a known GLP-1R agonist in Table 10, in words
[3] = system: rat intestinal epithelial cells; details: cited from earlier work
[4] = system: Ptet-GFP reporter construct; assay: ATC-inducible GFP reporter assay, fluorescence plate reader; type: cell-based, E. coli Nissle; details: two-fold decreased inducer across a range of concentrations; relative florescence units; FIG. 28

## NCCN(CCN)/[N+]([O-])=N/O [NO, diethylenetriamine-nitric oxide adduct]
[1]
  induction of GFP expression in PnsrR-GFP reporter construct: able to induce the expression of GFP

## Dulaglutide
[2]
  resistance to DPPIV mediated degradation / cleavage: protection from DPPIV

## GLP-1(1-37): full-length form of GLP-1, SEQ ID NO: 73 (HDEFERHAEGTFTSDVSSYLEGQAAKEFIAWLVKGRG)
[3]
  effect on intestinal epithelial cells: stimulate rat intestinal epithelial cells to become glucose-responsive insulin-secreting cells

## GLP-1(7-37): circulating active form of GLP-1, SEQ ID NO: 75
[2]; blood
  biological half-life in blood: a few minutes

## GLP-1: glucagon-like peptide 1, produced by intestinal cells
[2]; rapid degradation catalyzed by DPP-IV
  stability: 3 to 5 min

## Taspoglutide
[2]
  resistance to DPPIV mediated degradation / cleavage: avoid degradation by DPPIV,

## anhydrous tetracycline [ATC]
[4]
  induction of GFP expression in Ptet-GFP reporter construct: able to induce the expression of GFP
